What is called Papp A→B is the apparent permeability from the apical to the basolateral side of a cell layer. A word on the Papp: it is a coefficient for how fast a substance crosses the barrier.

Molecules are shown by their SMILES.

We go through seven compounds from PMC6467875, “An experimentally validated approach to calculate the blood-brain barrier permeability of small molecules” (Scientific Reports, 2019).

The conditions of data set [1]: source not stated; cited from earlier work.
A short description of data set [2]: Transwell permeability assay with iPSC-derived hBMECs. The format is in vitro ADME. To be noted: human, stem-cell derived hBMECs, obtained as part of this work.
Procedure: To validate results from MD simulations, permeabilities for selected molecules were determined using the transwell assay with human induced pluripotent stem cell (iPSC)-derived hBMECs. […] Briefly, hBMECs were sub-cultured onto polyester 12-well transwell inserts with a 0.4 µm pore size (Corning) coated with 1:1 collagen IV (100 µg mL^−1, Sigma) and fibronectin (50 µg mL^−1, Sigma) at a density of 1 × 10^6 cells mL^−1 and allowed to reach confluence for another two days. Permeability experiments were performed only if the transendothelial electrical resistance (TEER) was in excess of 1500 Ω cm^2. Prior to permeability experiments, cells were washed with transport buffer (0.12 M NaCl, 25 mM NaHCO3, 3 mM KCl, 2 mM MgSO4, 2 mM CaCl2, 0.4 mM K2HPO4, 1 mM 4-(2-hydroxyethyl)-1-piperazineethanesulfonic acid (HEPES), and 0.1% human platelet poor derived serum) and 100 µL of the molecule of interest in transport buffer was introduced into the apical well.
Experimentally, solute permeabilities are determined using a transwell assay from the concentrations in the apical (luminal, CL) and basolateral (abluminal, CA) compartments after time t using:10 P=VA⋅CA/(t⋅S⋅CL), where VA is the volume of the basolateral compartment (see Supporting Material for details).
For data set [3] the following is noted: not told; cited from earlier work.
A further data set concerns red blood cells. Further details: method as in Brahm et al. 40. Conditions: from rate constants km for transport into red blood cells, Papp = km/2; ref Brahm et al. 40; cited from earlier work.
In the next data set the test system is MDCKII cells. Further details: method as in Summerfield et al. 32. To be noted: transwell, ref Summerfield et al. 32; cited from earlier work.
The conditions of data set [4]: from experiment; ref Atkinson, Berg, 1988; cited from earlier work.
The test system of another data set is bovine BMECs. Further details: method as in Shah et al. 33. To be noted: transwell, ref Shah et al. 33; cited from earlier work.

Consider `N` [Ammonia], for which the Dipole moment in data set [1] is on record as 1.47 D. `Cn1c(=O)c2c(ncn2C)n(C)c1=O` [Caffeine] had a Papp A→B in data set [2] of 21 ×10⁻⁶ cm/s. Also, in data set [1], the Dipole moment is recorded as 3.65 D.

For `O=C=O` [Carbon -dioxide, Carbon dioxide], the Dipole moment in data set [1] is 0 D. Further, the Papp in data set [3] is 1.6 ± 0.4 × 10^−1 cm/s. As to `CCO` [Ethanol], in the data set on red blood cells, the Papp is 2100 ×10⁻⁶ cm/s. For the same compound, the Dipole moment in data set [1] is given as 1.69 D. In the case of `CCC1(C)CC(=O)NC1=O` (stereo not shown) [Ethosuximide], the Papp with MDCKII cells is 9.7 ×10⁻⁶ cm/s. Also, the “Log P, octanol-water partition coefficient” value in data set [4] was 0.38. Take `OCC(O)CO` [Glycerol]: the Papp in the data set with bovine BMECs is 9.5 ×10⁻⁶ cm/s. Moreover, the Dipole moment in data set [1] is given as 2.56 D. For `CC(C)O` [Isopropanol], in the data set with red blood cells, the Papp is 6500 ×10⁻⁶ cm/s. Further, the Dipole moment in data set [1] is 1.58 D.
